Here are results for three compounds from patent US7029918B2, “Water-soluble derivatives of lipophilic drugs” (Roche Diagnostics Operations, Inc., priority 2002, dated 2006).

Each structure is given as a SMILES string. Where “and” joins values, the source holds several entries; their conditions need not be identical. Equal values may be shown once.

Data set [1] in a line: Heat stress stability of urine standard solutions, ABUSCREEN ONLINE Benzodiazepines assay. To be noted: for stability in urine by ONLINE assay: up to 4 weeks, 4° C. or 45° C., pH 6.4 or 7.4, 100 to 200 ng/mL. As to the method: (§1) Urine standard solutions were prepared using pooled, filtered, normal human urine containing 0.09 percent sodium azide. […] Each of the drug stock solutions was added analytically to the assigned aliquot of urine pool. Final drug concentrations in the solutions were determined by GC-MS analyses performed at ELSOHLY LABORATORIES (Oxford, MS).
(§2) The stability of the above standard solutions were evaluated using three different analytical technologies: (1) GCIMS (Gas Chromatography/Mass Spectrometry) analysis, (2) ABUSCREEN ONLINE Benzodiazepines Immunoassay, and (3) HPLC (High Pressure Liquid Chromatography) analysis.
The heat stress stability study of the water-soluble derivative 2 was evaluated using ABUSCREEN ONLINE Benzodiazepines assay. […] (in neutral and acidic negative urine pools, 2 concentrations for each urinary pH).

For data set [2] the following is noted: cited from earlier work.
Data set [3] concerns antibody of ABUSCREEN ONLINE Benzodiazepines assay. To be noted: ONLINE immunoassay.
Text: ABUSCREEN ONLINE reagents and Calibration Pack were obtained from ROCHE DIAGNOSTICS CORPORATION, INC. […] ABUSCREEN ONLINE Benzodiazepines assay was run either on a ROCHE MIRA analyzer in a semi-quantitative mode, or using a ROCHE COBAS INTEGRA 700 analyzer in a semi-quantitative mode, according to the I manufacturer's instructions.
Data set [4] can be described thus: Heat stress stability of urine standard solutions, GC/MS quantification. The format is physicochemical. To be noted: for change of concentration in urine: 45° C. and 55° C. On the procedure: as §1, §2
The standard solutions were stored at various temperatures, including 4° C., 45° C. and 55° C., and tested at different time intervals.

How the values of data set [5] were obtained:
Water-soluble derivative 2 was spiked in certified drug-free human urine 100 ng/mL) and the resulting solution was divided into two portions: one was stored at 4° C. and the other stressed at 45° C. After three months, both solutions were analyzed for the concentration of water-soluble derivative 2 by the following procedure. A volume (between 2.5 to 10 mL) of the urine solutions was passed through an affinity column packed with anti-benzodiazepines antiserum-coated latex beads (0.8 μm). After it was washed with a 50 mM, pH 6.1 MES (4-morpholineethane […]) buffer, the column was eluted with methanol. The methanol eluant was then evaporated and the residue reconstituted in 404 μL of MES buffer. […] The column was eluted with a gradient generated between a 50 mM, pH 6.8 ammonium acetate buffer and acetonitrile (Table C).

Data set [6] concerns antibody (competition with benzodiazepine-BSA conjugate 7). In words: Immunochromatographic assay of benzodiazepines (nitrocellulose test strip, competitive). The format is binding. On the procedure:
In the absence of lipophilic drug in a sample being analyzed, the drug conjugate can bind to the antibody, and this binding can be measured. When a the lipophilic drug is present in the sample, the drug competes with the drug conjugate for binding to the antibody. Antibody that is bound to the liphophilic drug no longer contributes to the binding measurement. Lipophilic drug content is determined relative to the values obtained for known concentrations of the standard compound (Adler, F. L. J. Immunol. 1971, 106(6):1684–1685. See also Bates, M. Amer. Acad. Forensic Sci. 1991, 37(6):1000).
The benzodiazepine-BSA conjugate was prepared in a similar manner as described in Example 6, but treating with BSA rather than BTG. The product was prepared and stored in 100 mM potassium phosphate as 10 mg/mL solution with 0.05% sodium azide as preservative Example 9-Immunochromatographic assay of benzodiazepines using water-soluble derivative 2 as calibrator The immunochromatographic assay was conducted using a nitrocellulose-based test strip as described in detail in U.S. Pat. No. 5,770,458. Mylar backed large pore size nitrocellulose (8–12 micron) was cut into pieces of 15 cm in length and 5 cm in width. A solution of the benzodiazepine-BSA conjugate 7 (about 5 mg/mL) and anti-BSA monoclonal antibody (about 2 mg/mL), both in 50 mM potassium phosphate buffer pH 7.5, were loaded onto IVEK CORP. (North Springfield, Vt.) […] 2000™ system. The solutions were dispensed at the rate 1 μl/cm onto nitrocellulose at a distance of 2 cm and 1 cm, respectively, from the 15 cm side. The nitrocellulose segments were allowed to dry for about 30 min. at 37° C., and then were blocked with polyvinyl alcohol (PVA, m.w. 13,000–23,000) solution in 20 mM TRIS, pH 8, for 30 min. at room temperature. The segments were then rinsed in water and dried.
The same nitrocellulose as described above in this example was used as a separate membrane for microparticles (top membrane). The construction of the two-membrane strip configuration was carried out as described in detail in U.S. Pat. No. 5,770,458. In brief, the top membrane was blocked and washed using the same protocol as the main membrane. The top membrane containing the appropriate amount of microparticles was laminated to the main membrane with ADHESIVE […] INC. (Glen Rock, Pa.) adhesive mylar and the segment was then cut into 5 mm wide strips. The sample pad and sink pad were placed respectively at the beginning and terminal ends of the strips. Cellulose from BIORAD LABORATORIES (Hercules, Calif.) (gel blotter) was used for both the sample receiving pads and the sink pads. The calibration curve was obtained by adding solutions containing predetermined amounts of drug in urine to the sample receiving pad or by dipping the sample receiving pad of the membrane strip in the solutions. Various predetermined concentrations of water-soluble derivative 2 were used to prepare the standards in urine. The signal strength is determined as follows: 2.5 to 3.0=dark blue, 1.5 to 2.0-medium blue, 1.0=light blue, 0.5=barely perceivable color and 0=colorless. When the strip read colorless, a complete inhibition is achieved and the sample is indicated to contain 200 ng/mL of the drug used to prepare the “standards”.

For data set [7] the following is noted: in water; 'it is believed'.
Setting [8] is: urine pH 7.4, higher-concentration standard.
[9] abbreviates: urine pH 7.4, lower-concentration standard.
The mark [10] stands for this setting: urine pH 6.4, higher-concentration standard.
Where [11] appears, read: urine pH 6.4, lower-concentration standard.
[12] abbreviates: urine, scale 2.5 to 3.0 dark blue, 1.5 to 2.0 medium blue, 1.0 light blue, 0.5 barely perceivable, 0 colorless.

In the case of `O=C1CN=C(c2ccccc2)c2cc(Cl)ccc2N1` [Nordiazepam, reference compound], in data set [1] (setting [8]), the “ONLINE assay concentration, 4° C., Day 0” value worked out at 271 ng/mL; the “ONLINE assay concentration, 4° C., Week 2” value was determined as 272 ng/mL; the “ONLINE assay concentration, 4° C., Week 4” value was determined as 252 ng/mL; the “ONLINE assay concentration, 45° C., Day 0” value is reported as 271 ng/mL. Moreover, in data set [1] (setting [9]), the “ONLINE assay concentration, 4° C., Day 0” value is recorded as 139 ng/mL; the “ONLINE assay concentration, 4° C., Week 2” value worked out at 140 ng/mL; the “ONLINE assay concentration, 4° C., Week 4” value was 134 ng/mL; the “ONLINE assay concentration, 45° C., Day 0” value was 139 ng/mL.
Regarding `CCN(CC)CCN1C(=O)CN=C(c2ccccc2F)c2cc(Cl)ccc21` [Fluazepam], the “solubility in water” value in data set [2] was “only slight solubility in water”.
Consider `O=C1CN=C(c2ccccc2F)c2cc(Cl)ccc2N1CCNS(=O)(=O)O` [Water-soluble derivative 2, 1-(2-Sulfamidoethyl)-2′-fluoro-7-chloro-1,4-benzodiazepine], for which the “cross-reactivity to both Oxazepam and Nordiazepam” value in data set [3] is recorded as “approximately 70%”. In addition, the “GC/MS concentration, Day 0” value in data set [4] (human urine standard solution, starting concentration) is “Day 0 = 171 ng/mL”. For the same compound, the “GC/MS value at 5 months, 4° C.” value in data set [4] (human urine, 5 months, 4° C., Day 0 = 171 ng/mL) is 147 ng/mL. Further, the “GC/MS value at 5 months, 45° C.” value in data set [4] (human urine, 5 months, 45° C., Day 0 = 171 ng/mL) is 150 ng/mL. Besides, the “GC/MS value at 5 months, 55° C.” value in data set [4] (human urine, 5 months, 55° C., Day 0 = 171 ng/mL) is 145 ng/mL. Further, in data set [4] (human urine, two weeks, 4° C.), the “GC/MS concentration after storage at 4° C.” value came out at 191 ng/mL. Further, the “GC/MS concentration after storage at 45° C.” value in data set [4] (human urine, two weeks, 45° C.) is on record as 178 ng/mL. Also, the “GC/MS concentration after storage at 55° C.” value in data set [4] (human urine, two weeks, 55° C.) was 185 ng/mL. Also, the “change of concentration in urine” value in data set [4] (two weeks, 4° C.) was “stable at all temperatures”. For the same compound, the “change of concentration in urine” value in data set [4] (two weeks, 4° C., listed as water-soluble benzodiazepine reference standard 2) was “does not change significantly”. The “relative stability of the stressed sample (single extraction and HPLC runs)” value in data set [5] (human urine, three months, 45° C. vs 4° C., duplicate runs) is 96% and 106%. Also, the “relative stability of the stressed sample (average)” value in data set [5] (human urine, three months, area count at 45° C. divided by that at 4° C., average of duplicates) turned out to be 101%. Also, the “stability at 45° C. relative to 4° C.” value in data set [5] (urine, storage as long as 3 months) is reported as “no decrease in stability”. In addition, the “stability in urine by ONLINE assay” value in data set [1] was “stable for the evaluated time and temperatures”. Further, the “stability in urine by ONLINE assay” value in data set [1] (listed as water-soluble benzodiazepine reference standard 2) is listed as “does not change significantly”. Besides, in data set [1] (setting [10]), the “ONLINE assay concentration, 4° C., Day 0” value amounted to 191 ng/mL; the “ONLINE assay concentration, 4° C., Week 2” value was 191 ng/mL; the “ONLINE assay concentration, 4° C., Week 4” value was determined as 193 ng/mL; the “ONLINE assay concentration, 45° C., Day 0” value is reported as 191 ng/mL. For the same compound, in data set [1] (setting [10]), the “ONLINE assay concentration, 45° C., Week 2” value is on record as 200 ng/mL and the “ONLINE assay concentration, 45° C., Week 4” value is 209 ng/mL. Besides, in data set [1] (setting [11]), the “ONLINE assay concentration, 4° C., Day 0” value was 99 ng/mL; the “ONLINE assay concentration, 4° C., Week 2” value is 97 ng/mL; the “ONLINE assay concentration, 4° C., Week 4” value is given as 106 ng/mL; the “ONLINE assay concentration, 45° C., Day 0” value worked out at 99 ng/mL. Moreover, in data set [1] (setting [11]), the “ONLINE assay concentration, 45° C., Week 2” value was 101 ng/mL and the “ONLINE assay concentration, 45° C., Week 4” value was 109 ng/mL. Besides, in data set [1] (setting [8]), the “ONLINE assay concentration, 4° C., Day 0” value is recorded as 188 ng/mL; the “ONLINE assay concentration, 4° C., Week 2” value came out at 183 ng/mL; the “ONLINE assay concentration, 4° C., Week 4” value is listed as 189 ng/mL; the “ONLINE assay concentration, 45° C., Day 0” value was found to be 188 ng/mL. Also, in data set [1] (setting [8]), the “ONLINE assay concentration, 45° C., Week 2” value is 179 ng/mL and the “ONLINE assay concentration, 45° C., Week 4” value worked out at 192 ng/mL. In data set [1] (setting [9]), the “ONLINE assay concentration, 4° C., Day 0” value is listed as 102 ng/mL; the “ONLINE assay concentration, 4° C., Week 2” value is recorded as 92 ng/mL; the “ONLINE assay concentration, 4° C., Week 4” value is listed as 99 ng/mL; the “ONLINE assay concentration, 45° C., Day 0” value worked out at 102 ng/mL. Also, in data set [1] (setting [9]), the “ONLINE assay concentration, 45° C., Week 2” value was 95 ng/mL and the “ONLINE assay concentration, 45° C., Week 4” value turned out to be 98 ng/mL. Besides, the “cross-reactivity to both Oxazepam and Nordiazepam” value in data set [6] (immunochromatographic assay) is “approximately 70%”. Also, in data set [6] (setting [12]), the “signal strength at 50 ng/mL standard” value is 2.50 and 2.75; the “signal strength at 100 ng/mL standard” value is reported as 2.00; the “signal strength at 200 ng/mL standard” value is 0; the “signal strength at 400 ng/mL standard” value was found to be 0. Also, the aqueous solubility entry in data set [7] is “more than 2 mg/mL”.
